According to patent publication US4179467A, “Dopamine hydroxylase inhibiting 2-amino-cyclopent-1-ene-1-thiocarboxylic acid-disulfides” (Richter Gedeon Vegyeszeti Gyar Rt., priority 1976, dated 1979):

Columns and labels:
[1] = system: mice; assay: in vivo
[2] = system: dopamine-β-hydroxylase; assay: Noradrenaline level of heart in rats, % of controls; type: in vivo, male Wistar rats; details: rat, 4 hours
Experimental: (§1) The dopamine-β-hydroxylase inhibiting effects of the new compounds according to the invention were examined by the following tests:
(§2) The tests were performed on male Wistar rats weighing 150 to 200 g. The dopamine-β-hydroxylase inhibiting effects of the compounds were evaluated by determining the change of noradrenaline, dopamine and adrenaline levels of the cerebrum, heart, spleen and adrenal gland. The serotonine and 5-hydroxy-indolylacetic acid levels of the cerebrum were also determined. The measurements were performed as follows:
(§3) The animals were decapitated, the cerebrum, heart, spleen and adrenal gland were removed quickly, and the organs were frozen by placing them on a metal sheet cooled with dry ice. The frozen organs were stored for a maximum of one night at -20° C.
(§4) The organs were weighed in the frozen state and then homogenized in 5.0 ml of 0.4 N perchloric acid containing 0.05% of EDTA-Naa and 0.1% of Na2 S2 O5. The homogenized mixtures were centrifuged as described above for the treatment of adrenal gland, the supernatants were decanted, and the pH was adjusted to 8.0±0.1 with a 0.1 molar tris buffer containing 20 g/l of NaOH and 25 g/l of EDTA-Na2. 100 mg of prepared Al2 O3 (Anton et al.: J. Pharm. Ther. 138, 360 (1962)) were added to the samples, and the mixtures were shaken mechanically for 20 minutes. Thereafter the Al2 O3 was washed with 2×10 ml of distilled water, and noradrenaline was eluted with 1.0 ml of 0.05 N perchloric acid. 0.5 ml samples of the eluate were used for the determination of noradrenaline. Noradrenaline was determined according to the method of Shellenberger et al. (Anal. Biochem. 39, 356 (1971)), with the following modifications of the basic procedure: 0.5 ml of 0.1 molar Na-K-phosphate buffer, containing 9 g/l of EDTA-Na2, were added to 0.5 ml of the eluate, and the catecholamines (noradrenaline in the examination of heart and spleen and noradrenaline and dopamine in the examination of the cerebrum) were oxidized with 0.1 ml of a 0.1 N iodine solution in 5% potassium iodide. After exactly 2 minutes, oxidation was stopped by adding 0.25 ml of a 2.5% sodium sulfite solution in 4.4 N aqueous sodium hydroxide to the mixture. 2 minutes after the introduction of the alkaline sulfite solution, 0.2 ml of concentrated acetic acid was added to the samples, whereupon the pH decreased to 4.4 to 4.5. Thereafter the samples were placed for 5 minutes in a drying oven heated to 100° C., and then the samples were cooled with ice water. The fluorescency of noradrenaline was measured with an OPTON spectrophotometer at wavelengths of 380 nm (excitation) and 490 nm (emission).
(§5) In the tests disulfiram, 2,2-dipyridyl, bis(1-methyl-4-homopiperazinyl-thiocarbonyl)-disulfide, sodium diethyldithiocarbamate and N-phenyl-N'-(2-thiazolyl)-thiourea were used as reference substances. The values indicated in Table 1 are the percentages in relation to the amine levels of the controls measured in the same tests (±standard error). The statistical calculations were performed on a TPA/i type computer, using Student's t test.

[3] = in vivo; details: mouse, in vivo, mice
[4] = system: serotonine and 5-hydroxy-indolylacetic acid levels of the cerebrum; assay: Serotonine and 5-hydroxy-indolylacetic acid levels of the cerebrum (brain) in rats, % of controls; type: in vivo, male Wistar rats
Experimental: as §2, §3
In a further test series the serotonine and 5-hydroxy-indolylacetic acid contents were also determined, in addition to the determination of the noradrenaline and dopamine content, from the same sample. In this instance the brains were homogenized in 10 ml of 75% ethanol, 0.2 ml of EDTA-Na2 and 5% of ascorbic acid were added to the homogenized mixtures, and the homogenized mixtures were maintained at -20° C. overnight. The mixtures were centrifuged as described above, and 5.0 ml samples of the supernatant were removed. The samples were diluted with equal volumes of distilled water, and poured onto ion exchange columns of 0.5×1.5 cm dimensions, filled with buffered Amberlite CG-30 (200 to 400 mesh). The columns were washed with 5 ml of distilled water followed by 1.0 ml of 0.2 N hydrochloric acid, and the first effluent and the aqueous wash were collected for the determination of 5-hydroxy-indolylacetic acid. Elution was continued with a further 1.2 ml quantity of 0.2 N hydrochloric acid in order to remove noradrenaline, dopamine and serotonine. Samples of 0.3 ml were used for the determinations.
Noradrenaline and dopamine were determined by the method of Shellenberger, modified as described above, whereas serotonine was determined by the method of Curzon et al. (Brit. J. Pharmacol. 39, 653 (1970)). The basic method was modified as follows: A 0.5% solution of ortho-phthal(di)aldehyde in absolute ethanol was diluted with […] hydrochloric acid to 50-fold of its original volume, and 0.6 ml of the resulting 0.01% ortho-phthal(di)aldehyde solution were added immediately to 0.5 ml of the serotonine-containing sample. The sample was placed in a hot water bath for 10 minutes, thereafter cooled with tap water, and the flourescence was recorded at wavelengths of 360 nm (excitation) and 490 nm (emission).
5-Hydroxy-indolylacetic acid was determined from the mixture of the first effluent and the aqueous wash. 10 ml of distilled water and 0.2 ml of concentrated hydrochloric acid were added to the mixture, and the sample was poured onto a 0.8×4.0 cm column filled with Sephadex G-10. The column was washed with 15 ml of 0.1 N hydrochloric acid followed by 1.8 to 2.0 ml of 0.02 N aqueous ammonia, and then 5-hydroxy-indolylacetic acid was eluted with further 2.0 ml of the aqueous ammonia. 0.5 ml samples were used in the measurements, and the determination was performed according to the method of Korf et al. (Biochem. Pharmacol. 20, 659 (1971)).
as §5

[5] = system: dopamine-β-hydroxylase; assay: Adrenaline level of adrenal gland in rats, % of controls; type: in vivo, male Wistar rats; details: rat, 4 hours
Experimental: as §1, §2, §3
The adrenal glands were freed from fat and homogenized in 3.0 ml of ice-cold 0.4 N perchloric acid. The homogenized mixtures were centrifuged for 10 minutes at 0° C. with a speed of 3200 r.p.m. using a Janetzky K-70 type centrifuge. 0.05 ml samples were taken from the supernatant, and the adrenaline level was determined directly by the method of Laverty et al. (Anal. Biochem. 22, 269 (1968)).
as §5

[6] = system: dopamine-β-hydroxylase; assay: Noradrenaline level of spleen in rats, % of controls; type: in vivo, male Wistar rats; details: rat, i.p., 4 hours
Experimental: as §1
as §2, with “follows: […]” for “follows:”
The organs were weighed in the frozen state and then homogenized in 5.0 ml of 0.4 N perchloric acid containing 0.05% of EDTA-Naa and 0.1% of Na2 S2 O5. […] Noradrenaline was determined according to the method of Shellenberger et al. (Anal. Biochem. 39, 356 (1971)), with the following modifications of the basic procedure: 0.5 ml of 0.1 molar Na-K-phosphate buffer, containing 9 g/l of EDTA-Na2, were added to 0.5 ml of the eluate, and the catecholamines (noradrenaline in the examination of heart and spleen and noradrenaline and dopamine in the examination of the cerebrum) were oxidized with 0.1 ml of a 0.1 N iodine solution in 5% potassium iodide. […] The fluorescency of noradrenaline was measured with an OPTON spectrophotometer at wavelengths of 380 nm (excitation) and 490 nm (emission). […]

[7] = system: dopamine-β-hydroxylase; assay: Noradrenaline and dopamine levels of the cerebrum (brain) in rats, % of controls; type: in vivo, male Wistar rats; details: rat, 4 hours
Experimental: as §1, §2, §3, §4
The brains were homogenized in 10 parts by volume of 0.4 N perchloric acid. The homogenized mixture was stored at -20° C. overnight; thereafter it was thawed and centrifuged as described above. A sample of the homogenized mixture corresponding to 0.5 g of brain was removed, the pH of the sample was adjusted to 8.0±0.1 with 0.1 molar tris-buffer of the above composition, and the sample was processed as described above for the determination of the noradrenaline content of heart and spleen, with the difference that 1.5 ml of 0.05 N perchloric acid was used as the eluting agent. 0.5 ml of the eluate was used to determine the noradrenaline and dopamine contents. The measurement was performed as described above, with the difference that samples of 0.5 ml were applied for the recording of the flourescence of noradrenaline. The residue was placed for 50 minutes into a drying oven heated to 100° C., thereafter the sample was cooled with ice water, and the fluorescence of dopamine was recorded at wavelengths of 325 nm (excitation) and 380 nm (emission).
In a further test series the serotonine and 5-hydroxy-indolylacetic acid contents were also determined, in addition to the determination of the noradrenaline and dopamine content, from the same sample. […]

[8] = system: dopamine-β-hydroxylase; details: literature, cited from earlier work
[9] = Toxicity, LD50, rabbits; details: rabbit, in vivo, po
[10] = Toxicity, LD50, rats; details: rat, in vivo, po

## Chlorofusaric acid
[1]; p.o.
  LD50: 470 ± 85 mg/kg

## S=C(Nc1ccccc1)Nc1nccs1 [U-14624, N-phenyl-N'-(2-thiazolyl)-thiourea]
[2]; i.p., 200 mg/kg
  Heart NA level (percentages in relation to the controls): 106%
[3]; ip
  LD50: ~680 mg/kg
[3]; po
  LD50: > 1000 mg/kg
[4]; rat, i.p., 200 mg/kg, 4 hours
  Brain 5-HIAA level (percentages in relation to the controls): 175%
  Brain SE level (percentages in relation to the controls): 137%
[5]; i.p., 200 mg/kg
  Adrenal gland adrenaline level (% of controls): 72%
[6]; 200 mg/kg
  Spleen NA level (percentages in relation to the controls): 111%
[7]; i.p., 200 mg/kg
  Brain DA level (percentages in relation to the controls): 121%
  Brain NA level (percentages in relation to the controls): 31.6%

## CCCCNC1=C(C([O-])=S)CCC1.CCCCNC1=C(C([O-])=S)CCC1.[Zn+2] [M-3, 2-(N-butyl)-amino-cyclopent-1-ene-thiocarboxylic acid (zinc salt)]
[2]; i.p., 50 mg/kg
  Heart NA level (percentages in relation to the controls): 84.5±4.1%
[2]; i.p., 100 mg/kg
  Heart NA level (percentages in relation to the controls): 91.5 ± 8.1%
[2]; p.o., 500 mg/kg
  Heart NA level (percentages in relation to the controls): 108.8 ±3.2%
[1]; i.p.
  LD50: ~ 450 mg/kg
[5]; i.p., 50 mg/kg
  Adrenal gland adrenaline level (% of controls): 66.3%
[5]; i.p., 100 mg/kg
  Adrenal gland adrenaline level (% of controls): 60.5 ± 3.6%
[5]; p.o., 500 mg/kg
  Adrenal gland adrenaline level (% of controls): 100.3 ±8.3%
[7]; i.p., 50 mg/kg
  Brain DA level (percentages in relation to the controls): 112.2 ± 12.0%
  Brain NA level (percentages in relation to the controls): 85.0 ±9.1%
[7]; i.p., 100 mg/kg
  Brain DA level (percentages in relation to the controls): 121.3 ± 6.1%
  Brain NA level (percentages in relation to the controls): 73.5 ± 3.2%
[7]; p.o., 500 mg/kg
  Brain DA level (percentages in relation to the controls): 99.2 ±5.0%
  Brain NA level (percentages in relation to the controls): 98.9 ±2.5%

## c1ccc(-c2ccccn2)nc1 [2,2-D, 2,2-dipyridyl]
[2]; i.p., 37.5 mg/kg
  Heart NA level (percentages in relation to the controls): 104%
[2]; i.p., 75 mg/kg
  Heart NA level (percentages in relation to the controls): 58%
[8]; in vitro conditions
  dopamine-β-hydroxylase inhibition in vitro, in words: effective under in vitro conditions
[3]; ip
  LD50: 280 mg/kg
[4]; Rattus norvegicus, ip, 4 h, read-out: Brain SE level (percentages in relation to the controls)
  response vs control in vivo at 75 mg/kg: 100%
[5]; i.p., 37.5 mg/kg
  Adrenal gland adrenaline level (% of controls): 80%
[5]; i.p., 75 mg/kg
  Adrenal gland adrenaline level (% of controls): 63%
[6]; 37.5 mg/kg
  Spleen NA level (percentages in relation to the controls): 100%
[7]; i.p., 37.5 mg/kg
  Brain DA level (percentages in relation to the controls): 116%
  Brain NA level (percentages in relation to the controls): 79.5%
[7]; i.p., 75 mg/kg
  Brain DA level (percentages in relation to the controls): 95%
  Brain NA level (percentages in relation to the controls): 41.2%

## CCN(CC)C(=S)SSC(=S)N(CC)CC [DS, bis(diethylthiocarbamoyl)-disulfide]
[2]; i.p., 200 mg/kg
  Heart NA level (percentages in relation to the controls): 98%
[2]; i.p., 400 mg/kg
  Heart NA level (percentages in relation to the controls): 102%
[8]; known compounds
  dopamine-β-hydroxylase inhibiting effects, in words: strong dopamine-β-hydroxylase inhibiting effects
[9]
  LD50: 1800 ± 130 mg/kg
[10]
  LD50: 8600 ± 370 mg/kg
[4]; rat, i.p., 200 mg/kg, 4 hours
  Brain SE level (percentages in relation to the controls): 122%
[4]; rat, i.p., 400 mg/kg, 4 hours
  Brain SE level (percentages in relation to the controls): 117%
[5]; i.p., 200 mg/kg
  Adrenal gland adrenaline level (% of controls): 52%
[5]; i.p., 400 mg/kg
  Adrenal gland adrenaline level (% of controls): 66%
[7]; i.p., 200 mg/kg
  Brain DA level (percentages in relation to the controls): 111%
  Brain NA level (percentages in relation to the controls): 22.5%
[7]; i.p., 400 mg/kg
  Brain DA level (percentages in relation to the controls): 112%
  Brain NA level (percentages in relation to the controls): 24.1%
